Measured values taken from the supplement of paper PMC10307832.

Experiments:
Test in all cases: relative viability (nuclei count vs DMSO), 5 days (fraction); higher = more cells survive
Vandetanib + Phenformin = compound: COc1cc2/c(=N/c3ccc(Br)cc3F)nc[nH]c2cc1OCC1CCN(C)CC1 [Vandetanib] + N=C(N)NC(=N)NCCc1ccccc1 [Phenformin] (partner 250 µM)
Summary of the method: (§1)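 The day after seeding in 1536-well plates, lung cancer cell lines were treated by pin tool with a single drug, or with a fixed anchor-drug dose together with five library-drug doses (not always all listed) in √10 steps. After 5 days, a combined fix-and-stain solution (final 0.05% Triton X-100, 1% formaldehyde, 1 ug/ml Hoechst) was added. Nuclei counted on 4× images gave relative viability as treated counts over vehicle counts, reported as the median of duplicate plates.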

[1] = compound: C1=CC=C2C(=C1)N=C(S2)C(C#N)C3=NC(=NC=C3)NCCC4=CN=CC=C4 + N=C(N)NC(=N)NCCc1ccccc1 [Phenformin] (partner 250 µM)
Summary of the method: as §1

[2] = compound: C1=CC=C2C(=C1)N=C(S2)C(C#N)C3=NC(=NC=C3)NCCC4=CN=CC=C4 + CC(=O)c1c(C)c2cnc(Nc3ccc(N4CCNCC4)cn3)nc2n(C2CCCC2)c1=O [Palbociclib] (partner 0.5 µM)
Summary of the method: as §1

[3] = compound: C1=CC=C2C(=C1)N=C(S2)C(C#N)C3=NC(=NC=C3)NCCC4=CN=CC=C4 + CC1(C)CCC(c2ccc(Cl)cc2)=C(CN2CCN(c3ccc(C(=O)NS(=O)(=O)c4ccc(N[C@H](CCN5CCOCC5)CSc5ccccc5)c(S(=O)(=O)C(F)(F)F)c4)cc3)CC2)C1 [Navitoclax] (partner 0.5 µM)
Summary of the method: as §1

| Cell Line | relative viability (Vandetanib + Phenformin; first compound 0.02 µM) | relative viability (Vandetanib + Phenformin; first compound 0.06325 µM) | relative viability (Vandetanib + Phenformin; first compound 0.2 µM) | relative viability (Vandetanib + Phenformin; first compound 0.6325 µM) | relative viability (Vandetanib + Phenformin; first compound 2 µM) | relative viability ([1]; first compound 0.005 µM) | relative viability ([1]; first compound 0.01581 µM) | relative viability ([1]; first compound 0.05 µM) | relative viability ([1]; first compound 0.1581 µM) | relative viability ([1]; first compound 0.5 µM) | relative viability ([2]; first compound 0.005 µM) | relative viability ([2]; first compound 0.01581 µM) | relative viability ([2]; first compound 0.05 µM) | relative viability ([2]; first compound 0.1581 µM) | relative viability ([2]; first compound 0.5 µM) | relative viability ([3]; first compound 0.005 µM) | relative viability ([3]; first compound 0.01581 µM) | relative viability ([3]; first compound 0.05 µM) | relative viability ([3]; first compound 0.1581 µM) | relative viability ([3]; first compound 0.5 µM) |
| --- | --- | --- | --- | --- | --- | --- | --- | --- | --- | --- | --- | --- | --- | --- | --- | --- | --- | --- | --- | --- |
| NCI-H2126 | 0.541 | 0.5 | 0.522 | 0.495 | 0.49 | 0.536 | 0.529 | 0.505 | 0.543 | 0.529 | 0.299 | 0.363 | 0.365 | 0.347 | 0.354 | 0.91 | 0.913 | 0.782 | 0.831 | 0.842 |
| 201T | 0.466 | 0.406 | 0.427 | 0.403 | 0.424 | 0.415 | 0.425 | 0.423 | 0.504 | 0.346 | 0.292 | 0.354 | 0.354 | 0.383 | 0.325 | 1.14 | 1.22 | 1.14 | 1.24 | 1.2 |
| LU99A | 0.876 | 0.818 | 0.577 | 0.766 | 0.886 | 0.767 | 0.9 | 0.793 | 1.07 | 0.814 | 0.398 | 0.41 | – | 0.47 | 0.39 | 0.691 | 0.968 | 0.777 | 0.948 | 0.866 |
| NCI-H647 | 0.524 | 0.51 | 0.412 | 0.513 | 0.501 | 0.265 | 0.442 | 0.584 | 0.775 | 0.292 | 0.376 | 0.407 | 0.372 | 0.378 | 0.442 | – | 1.22 | 0.955 | 1.34 | 0.979 |
| LC-2-ad | 0.615 | 0.512 | 0.548 | 0.475 | 0.305 | 0.575 | 0.507 | 0.541 | 0.598 | 0.611 | 0.365 | 0.526 | 0.473 | 0.509 | 0.399 | 0.358 | 0.497 | 0.447 | 0.581 | 0.351 |
| LK-2 | 0.381 | 0.5 | 0.419 | 0.444 | 0.408 | 0.392 | 0.289 | 0.396 | 0.58 | 0.33 | 0.619 | 0.914 | 0.555 | 0.801 | 0.715 | – | 0.931 | 0.824 | 0.916 | 0.843 |
| NCI-H520 | 0.563 | 0.58 | 0.481 | 0.518 | 0.548 | 0.494 | 0.472 | 0.556 | 0.636 | 0.532 | 0.193 | 0.266 | 0.231 | 0.259 | 0.213 | 0.929 | 1.25 | 1.03 | 1.26 | 1.19 |
| NCI-H1975 | 0.391 | 0.398 | 0.391 | 0.389 | 0.403 | 0.301 | 0.42 | 0.404 | 0.447 | 0.359 | 0.565 | 0.538 | 0.656 | 0.832 | 0.408 | 0.852 | 1.15 | 1.03 | 1.18 | 0.695 |
